Measurements published in patent publication US8853271B2, “Method for inhibiting activity and/or expression of matrix metalloproteinase, inhibiting phosphorylation of mitogen-activated protein kinase, and/or promoting expression of collagen using tormentic acid” (China Medical University, priority 2010, dated 2014).

Experiments:
[1] = tested on: c-Jun N-terminal Kinase (JNK); experiment: Western blotting of phosphorylated JNK in UV-exposed fibroblasts; format: cell-based, human; details: WS1 fibroblasts exposed to UV for 24 hours, treated for 1 hour before collection
Experimental: (§1) The skin “photo-aging” caused by ultraviolet rays may lead to an increase of matrix metalloproteinase in the dermis via the phosphorylation of the mitogen-activated protein kinase (MAPK), and thus a western blotting assay was also carried out in this experiment to observe the effect of tormentic acid on the phosphorylation of mitogen-activated protein kinase in cells; the result is shown in FIG. 5.
(§2) However, when the cells were treated with tormentic acid for 1 hour before collection, the phosphorylation of JNK, ERK, and p38 can be inhibited.

[2] = tested on: bacterial matrix metalloproteinase; experiment: Decomposition test of gelatin (inhibition of matrix metalloproteinase activity); format: biochemical
Experimental: (§3) In addition to collagen decomposing, matrix metalloproteinase (collagenase) has the effect of gelatin decomposing. The property of the fluorescence generation of decomposed gelatin and decomposed commercial substrates of collagenase (purchased from Calbiochem, la Jolla, […]) was used in this example to evaluate the inhibitory effect of tormentic acid on the matrix metalloproteinase.
A 50 μl buffer solution (pH 7.8, contained 50 mM Tris-HCl, 10 mM calcium chloride, and 0.15 M sodium chloride), 30 μl sterile water, and 10 μl bacterial matrix metalloproteinase (0.1 mg/ml, Sigma) were added into an eppendorf tube, and then a 10 μl solution of tormentic acid ([…]) or doxycycline as the positive control was added into the eppendorf tube. The mixture was well mixed, and incubated at room temperature for 60 minutes.
The mixture (30 μl) was drawn and dropped on a circular filter paper covering a gelatin culture medium, and then the filter paper along with the medium was placed into an incubator under 37° C. After incubating for 18 hours, the filter paper was removed. The culture medium was stained with a Coomassie Blue R-250 staining solution (purchased from Amresco company, America), and then was destained with a destaining solution. Because gelatin decomposed by matrix metalloproteinase will not be stained by the Coomassie Blue staining solution, the transparency of the culture medium may reveal the activity of the matrix metalloproteinase. After the culture medium was photographed, the picture was analyzed by an image analysis software (AlphaDigiDoc 1201, purchased from Alpha Innotech Co., America) to calculate the inhibition rate of tormentic acid on the activity of gelatin decomposition of the matrix metalloproteinase.

procollagen-1 = experiment: Western blotting of procollagen-1 in UV-exposed fibroblasts; format: cell-based, human; details: WS1 fibroblasts exposed to UV for 24 hours, treated for 1 hour before collection
c-Jun = experiment: Western blotting of AP-1 subunit c-Jun in the nucleus; format: cell-based, human; details: WS1 fibroblasts exposed to UV for 24 hours, treated for 1 hour before collection
From the text: (§4) The UV exposure of cells induces JNK and p38 to activate c-Jun, which then enters into the nucleus. Then, c-Fos translocates into the nucleus under the regulation of ERK and p38. A c-Jun subunit combines with a c-Fos subunit to form an activator protein 1 (AP-1) gene transcription factor, which then participates in gene expression to promote the transcription of message RNA (mRNA) of matrix metalloproteinase-1 (MMP-1) and reduces the gene expression of procollagen-Iα1 (procollagen α1 of Type I collagen). Thus, a western blotting assay was carried out in this experiment to further observe the protein expression of AP-1 in the nucleus, and the result is shown in FIG. 6. After the WS1 human skin dermal fibroblasts were exposed to UV rays for 24 hours, the expression level of c-Jun and c-Fos in the nucleus were increased. However, when the cells were treated with tormentic acid for 1 hour before collection, the expression of c-Jun and c-Fos were inhibited.

p38 protein = experiment: Western blotting of phosphorylated p38 in UV-exposed fibroblasts; format: cell-based, human; details: WS1 fibroblasts exposed to UV for 24 hours, treated for 1 hour before collection
Experimental: as §1, §2

[3] = tested on: WS1 human skin dermal fibroblasts; experiment: Test of cell survival rate (MTS assay) under UV exposure; format: cell-based; details: for absorption value (MTS, 490 nm) / survival rate (%): UV 90 mJ/cm^2, 24 hours; for death of the cells (in words): 90 mJ/cm^2 UV
Experimental: The following experiment was carried out by using WS1 human skin dermal fibroblasts (purchased from Food Industry Research and Development Institute, Taiwan). Under exposure to the ultraviolet ray (UV) with the intensity range from 0 mJ/cm^2 to 120 mJ/cm^2, it will not cause death to WS1 human skin dermal fibroblasts. Thus, this experiment was carried out at the UV intensity of 90 mJ/cm^2. First, tormentic acid of various concentrations (0, 0.1, 1.0, 2.0, or 10 μg/ml) was added to a culture medium (comprising α-minimum essential medium, 10% heat-inactivated Fetal Bovine Serum, 100 U/ml penicillin, and 100 μg/ml Streptomycin) containing the WS1 human skin dermal fibroblasts. After the cells were cultured for 24 hours, an MTS (3-(4,5-di-methylthiazol-2-yl)-5-(3-carboxymethoxy phenyl)-2-(4-sulfophenyl)-2H-tetrazolium, commercially available from Promega, Madison, Wis., America) assay was carried out to observe the cell survival rate, and the results are shown in Table 3. The mechanism of the MTS assay is as follows: the dehydrogenase activity of living cells can reduce MTS to a water soluble product that is red purple in color, which has a maximum absorption at a wavelength of 490 nm, and thus, the cell survival rate can be evaluated by absorption values.

c-Fos = experiment: Western blotting of AP-1 subunit c-Fos in the nucleus; format: cell-based, human; details: WS1 fibroblasts exposed to UV for 24 hours, treated for 1 hour before collection
From the text: as §4

[4] = tested on: matrix metalloproteinase (collagenase, Sigma); experiment: Fluorogenic substrate test (collagenase substrate III); format: biochemical
From the text: as §3
A specific amount of a solution of the collagenase substrate III (Mcc-Pro-Leu-Gly-Pro-D-Lys (DNP)—OH, purchased from Calbiochem, la Jolla, […]), a matrix metalloproteinase (collagenase, Sigma) solution, tormentic acid or doxycycline as the positive control were mixed and added to a 96 well plate. Then, an ELISA reader was used to determine the […] (405 nm), respectively. The results are shown in Table 2 and FIG. 3, wherein ΔF is the fluorescence value that the basic fluorescence value at time zero has been deducted.

[5] = tested on: matrix metalloproteinase-1; experiment: Western blotting of matrix metalloproteinase-1 in UV-exposed fibroblasts; format: cell-based, human; details: WS1 fibroblasts exposed to UV for 24 hours, treated for 1 hour before collection
[6] = tested on: extracellular signal-regulated protein kinase (ERK); experiment: Western blotting of phosphorylated ERK in UV-exposed fibroblasts; format: cell-based, human; details: WS1 fibroblasts exposed to UV for 24 hours, treated for 1 hour before collection
Experimental: as §1, §2

C[C@@H]1CC[C@]2(C(=O)O)CC[C@]3(C)C(=CC[C@@H]4[C@@]5(C)C[C@@H](O)[C@H](O)C(C)(C)[C@@H]5CC[C@]43C)[C@@H]2[C@]1(C)O [tormentic acid]
phosphorylation of JNK [1]: inhibited
Inhibition rate (%) of gelatin decomposing activity ([2]; 25 μg/ml): 3.7%
Inhibition rate (%) of gelatin decomposing activity ([2]; 50 μg/ml): 24.0%
Inhibition rate (%) of gelatin decomposing activity ([2]; 100 μg/ml): 62.7%
Inhibition rate (%) of gelatin decomposing activity ([2]; 200 μg/ml): 75.3%
activity of gelatin decomposition of the matrix metalloproteinase (in words) ([2]; 25-200 μg/ml): significantly inhibited
expression of procollagen-1 (procollagen-1): increased
expression of c-Jun in the nucleus (c-Jun): inhibited
phosphorylation of p38 (p38 protein): inhibited
absorption value (MTS, 490 nm) ([3]; 0.1 μg/ml): 1.08 ± 0.95
survival rate (%) ([3]; 0.1 μg/ml): 103.8%
absorption value (MTS, 490 nm) ([3]; 1.0 μg/ml): 1.10 ± 0.97
survival rate (%) ([3]; 1.0 μg/ml): 105.8%
absorption value (MTS, 490 nm) ([3]; 2.0 μg/ml): 1.10 ± 0.98
survival rate (%) ([3]; 2.0 μg/ml): 105.8%
absorption value (MTS, 490 nm) ([3]; 10.0 μg/ml): 0.83 ± 0.70
survival rate (%) ([3]; 10.0 μg/ml): 79.8%
death of the cells (in words) ([3]; concentration of 10 μg/ml): caused the death of the cells
death of the cells (in words) ([3]; concentration of lower than 2 μg/ml): did not cause the death of the cells
cytotoxicity (in words) ([3]; low concentration): no cytotoxicity
expression of c-Fos in the nucleus (c-Fos): inhibited
generation of fluorescence from collagenase substrate III (in words) [4]: can reduce the generation of fluorescence
Inhibition rate (collagenase substrate III decomposition) ([4]; 50 μg/ml): (39%)
ΔF (fluorescence value, time-zero value deducted) ([4]; 50 μg/ml): 54.8 ± 8.4
Inhibition rate (collagenase substrate III decomposition) ([4]; 100 μg/ml): (44.7%)
ΔF (fluorescence value, time-zero value deducted) ([4]; 100 μg/ml): 49.8 ± 7.2
Inhibition rate (collagenase substrate III decomposition) ([4]; 250 μg/ml): (79.1%)
ΔF (fluorescence value, time-zero value deducted) ([4]; 250 μg/ml): 18.8 ± 10.8
expression of matrix metalloproteinase-1 [5]: inhibited
phosphorylation of ERK [6]: inhibited
